# From article PMC8570541, “Real-time observation of tetrapyrrole binding to an engineered bacterial phytochrome” (Communications Chemistry, 2021)
# Experiments:
# miRFP709 = biological target: T1, miRFP709 (Rhodopseudomonas palustris, UniProt A0A161I5N6); assay: time-resolved absorption and stimulated Raman spectroscopy; format: binding; settings: covalent; thioether to Cys in PAS; pH 8.0, 20 mM Tris-HCl, 150 mM NaCl, DTT
# T1 construct: engineered monomeric PAS-GAF fragment derived from RpBphP1; Cys in PAS only, none in GAF; about 35 kDa; N-terminal polyhistidine tag; apoprotein expressed in E. coli LMG194 without heme oxygenase
# T1 sequence (A0A161I5N6 1-314 limits assumed): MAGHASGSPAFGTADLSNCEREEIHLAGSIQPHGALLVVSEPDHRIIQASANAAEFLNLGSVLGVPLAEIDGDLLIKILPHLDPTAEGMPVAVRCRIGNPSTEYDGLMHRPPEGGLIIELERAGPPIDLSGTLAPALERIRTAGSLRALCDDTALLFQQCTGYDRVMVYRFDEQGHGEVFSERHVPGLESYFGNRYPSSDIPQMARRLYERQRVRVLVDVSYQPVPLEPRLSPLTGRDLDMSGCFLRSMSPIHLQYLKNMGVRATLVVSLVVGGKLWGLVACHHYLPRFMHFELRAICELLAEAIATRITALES
# Source text: time-resolved absorption and stimulated Raman spectroscopy on miRFP709 | We assign the 18-min reaction to the covalent bond formation to Cys in the PAS
# miRFP670 = biological target: T2, miRFP670 (Rhodopseudomonas palustris, UniProt A0A161I5N6, D200T/I252C, form not given); assay: time-resolved absorption and stimulated Raman spectroscopy, SDS-PAGE; format: binding; settings: covalent; Cys253 GAF thioether, then a second thioether to Cys20 PAS; pH 8.0, 20 mM Tris-HCl, 150 mM NaCl, DTT
# T2 construct: engineered monomeric PAS-GAF fragment derived from RpBphP1; Cys20 (PAS) and Cys253 (GAF); about 35 kDa; N-terminal polyhistidine tag; apoprotein expressed in E. coli LMG194 without heme oxygenase
# T2 sequence (A0A161I5N6 1-314 D200T/I252C limits assumed): as the sequence (A0A161I5N6 1-314 limits assumed) above, with D200T, I252C counted along it
structure (smiles),measurement,setting,value
C=CC1=C(C)C(=Cc2[nH]c(C=C3N=C(C=C4NC(=O)C(C)=C4C=C)C(C)=C3CCC(=O)O)c(CCC(=O)O)c2C)NC1=O [biliverdin],time constant of C-S bond formation (Cys in PAS),miRFP709,18 min
same,time constant of C-S bond formation (Cys in GAF),miRFP670,4.3 min
